Reference: patent US20250042920A1 (OCEAN UNIVERSITY OF CHINA, priority 2021, published 2025)

Key:
MNK1 = MNK1 (Homo sapiens, UniProt Q9BUB5); assay: MNK1 kinase inhibition assay (LANCE Ultra kinase activity assay, PerkinElmer); format: biochemical; settings: 450 μM ATP; for IC50: five concentrations 10000-1 nM; for inhibition at 1 µM: inhibition rate at 1000 nM compound, 60 min, 25° C., read-out: Inhibitory activity(1 μM) MNK1
Description: (§1) MNK1 and MNK2 kinase inhibition assays were performed using LANCE Ultra kinase activity assay developed by PerkinElmer. […] The test steps are as follows: At 25° C., 1.00 ng MNK1 or 0.05 ng MNK2 was prepared with different concentrations (10000, 1000, 100, 10, 1 nM) of the tested compound to form a total volume of 10 μL reaction mixture (MNK1: 12.5 nM CREB, 450 μM ATP, 2 mM DTT, 1× buffer; MNK2: 12.5 nM CREB, 100 μM ATP, 2 mM DTT, 1×buffer), and incubation for 60 min. The reaction was terminated by adding 5 μL EDTA/Detection buffer and 5 μL Eu-CREB/Detection buffer. The ratio of HTRF signals at 615 nm and 665 nm was detected after 60 min of incubation. The inhibition rate was calculated by measuring the compounds at 1000 nM.
(§2) Then five different concentrations (10000, 1000, 100, 10, 1 nM) of the tested compounds were measured, and the IC50 value was calculated according to the inhibition rate fitting curve.

MNK2 = MNK2 (Homo sapiens, UniProt Q9HBH9); assay: MNK2 kinase inhibition assay (LANCE Ultra kinase activity assay, PerkinElmer); format: biochemical; settings: 100 μM ATP; for IC50: five concentrations 10000-1 nM; for inhibition at 1 µM: inhibition rate at 1000 nM compound, 60 min, 25° C., read-out: Inhibitory activity(1 μM) MNK2
Sequence of MNK2 (Q9HBH9 whole entry): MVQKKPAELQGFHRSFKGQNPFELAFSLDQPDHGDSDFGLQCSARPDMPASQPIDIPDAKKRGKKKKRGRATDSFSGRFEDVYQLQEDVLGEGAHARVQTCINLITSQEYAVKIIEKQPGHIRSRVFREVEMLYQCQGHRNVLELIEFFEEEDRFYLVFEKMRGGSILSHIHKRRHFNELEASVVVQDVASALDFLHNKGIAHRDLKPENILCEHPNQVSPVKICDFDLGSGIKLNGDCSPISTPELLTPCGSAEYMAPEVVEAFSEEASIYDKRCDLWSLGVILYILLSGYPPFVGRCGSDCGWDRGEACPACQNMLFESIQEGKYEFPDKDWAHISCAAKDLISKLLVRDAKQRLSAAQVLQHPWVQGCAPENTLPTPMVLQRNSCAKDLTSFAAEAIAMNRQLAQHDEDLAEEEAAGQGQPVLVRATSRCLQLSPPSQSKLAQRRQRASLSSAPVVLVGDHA
Description: as §1, §2

Sequence of MNK1 (Q9BUB5 whole entry): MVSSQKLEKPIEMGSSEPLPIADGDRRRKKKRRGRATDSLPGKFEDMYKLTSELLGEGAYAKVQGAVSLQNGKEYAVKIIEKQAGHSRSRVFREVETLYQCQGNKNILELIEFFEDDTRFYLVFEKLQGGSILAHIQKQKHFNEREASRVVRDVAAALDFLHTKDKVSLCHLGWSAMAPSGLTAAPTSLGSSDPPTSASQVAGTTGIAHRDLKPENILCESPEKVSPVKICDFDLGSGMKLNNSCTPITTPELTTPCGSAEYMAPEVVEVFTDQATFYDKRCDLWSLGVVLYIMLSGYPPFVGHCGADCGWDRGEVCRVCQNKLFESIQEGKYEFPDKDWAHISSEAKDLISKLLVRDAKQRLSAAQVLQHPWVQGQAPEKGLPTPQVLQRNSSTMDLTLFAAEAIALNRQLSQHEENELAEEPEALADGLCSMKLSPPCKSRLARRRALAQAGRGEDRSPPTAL

SMILES	IC50 (MNK1) [nM]	inhibition at 1 µM (MNK1) [%]	IC50 (MNK2) [nM]	inhibition at 1 µM (MNK2) [%]
O=C(c1ccc(-c2nn3c(-c4ccc(F)cc4)cnc3s2)cc1)N1CCOCC1 [Compound 2, (4-(5-(4-fluorophenyl)imidazo[2,1-b][1,3,4]thiadiazol-2-yl)phenyl)(morpholino)methanone]	200 to 800	> 75	< 50	> 75
O=C(c1ccc(-c2nn3c(-c4ccc(O)cc4)cnc3s2)cc1)N1CCOCC1 [Compound 3, (4-(5-(4-hydroxyphenyl)imidazo[2,1-b][1,3,4]thiadiazol-2-yl)phenyl)(morpholino)methanone]	< 50	> 75	< 50	> 75
O=C(c1ccc(-c2nn3c(-c4ccc(C(F)(F)F)cc4)cnc3s2)cc1)N1CCOCC1 [Compound 5, morpholino(4-(5-(4-(trifluoromethyl)phenyl)imidazo[2,1-b][1,3,4]thiadiazol-2-yl)phenyl)methanone]	50 to 200	> 75	50 to 200	> 75
O=C(c1ccc(-c2nn3c(-c4ccc(Cl)cc4)cnc3s2)cc1)N1CCOCC1 [Compound 6, (4-(5-(4-chlorophenyl)imidazo[2,1-b][1,3,4]thiadiazol-2-yl)phenyl)(morpholino)methanone]	50 to 200	> 75	50 to 200	> 75
Cc1ccc(-c2cnc3sc(-c4ccc(C(=O)N5CCOCC5)cc4)nn23)cc1 [Compound 7, morpholino(4-(5-(p-tolyl)imidazo[2,1-b][1,3,4]thiadiazol-2-yl)phenyl)methanone]	–	> 75	–	> 75
O=C(c1ccc(-c2nn3c(-c4ccc(C(F)(F)F)c(F)c4)cnc3s2)cc1)N1CCOCC1 [Compound 9, (4-(5-(3-fluoro-4-(trifluoromethyl)phenyl)imidazo[2,1-b][1,3,4]thiadiazol-2-yl)phenyl)(morpholino)methanone]	–	> 75	–	> 75
O=C(c1ccc(-c2nn3c(-c4ccc(O)c(F)c4)cnc3s2)cc1)N1CCOCC1 [Compound 10, (4-(5-(3-fluoro-4-hydroxyphenyl)imidazo[2,1-b][1,3,4]thiadiazol-2-yl)phenyl)(morpholino)methanone]	50 to 200	> 75	< 50	> 75
O=C(c1ccc(-c2nn3c(-c4ccc(F)c(F)c4)cnc3s2)cc1)N1CCOCC1 [Compound 11, (4-(5-(3,4-difluorophenyl)imidazo[2,1-b][1,3,4]thiadiazol-2-yl)phenyl)(morpholino)methanone]	–	> 75	–	> 75
CN(C)C1CCN(C(=O)c2ccc(-c3nn4c(-c5ccc(F)cc5)cnc4s3)cc2)CC1 [Compound 13, (4-(dimethylamino)piperidin-1-yl)(4-(5-(4-fluorophenyl)imidazo[2,1-b][1,3,4]thiadiazol-2-yl)phenyl)methanone]	< 50	> 75	< 50	> 75
CN(C)C1CCN(C(=O)c2ccc(-c3nn4c(-c5ccc(O)cc5)cnc4s3)cc2)CC1 [Compound 14, (4-(dimethylamino)piperidin-1-yl)(4-(5-(4-hydroxyphenyl)imidazo[2,1-b][1,3,4]thiadiazol-2-yl)phenyl)methanone]	< 50	> 75	< 50	> 75
CN(C)C1CCN(C(=O)c2ccc(-c3nn4c(-c5ccc(C(F)(F)F)cc5)cnc4s3)cc2)CC1 [Compound 16]	< 50	> 75	< 50	> 75
CN1CCN(C(=O)c2ccc(-c3nn4c(-c5ccncc5)cnc4s3)cc2)CC1 [Compound 20, (4-methylpiperazin-1-yl)(4-(5-(pyridin-4-yl)imidazo[2,1-b][1,3,4]thiadiazol-2-yl)phenyl)methanone]	200 to 800	> 75	50 to 200	> 75
CN1CCN(C(=O)c2ccc(-c3nn4c(-c5ccc(C(F)(F)F)cc5)cnc4s3)cc2)CC1 [Compound 21, (4-methylpiperazin-1-yl)(4-(5-(4-(trifluoromethyl)phenyl)imidazo[2,1-b][1,3,4]thiadiazol-2-yl)phenyl)methanone]	< 50	> 75	< 50	> 75
CN1CCN(C(=O)c2ccc(-c3nn4c(-c5ccc(Cl)cc5)cnc4s3)cc2)CC1 [Compound 22, (4-(5-(4-chlorophenyl)imidazo[2,1-b][1,3,4]thiadiazol-2-yl)phenyl)(4-methylpiperazin-1-yl)methanone]	< 50	> 75	< 50	> 75

The remaining lines, values ahead:

IC50 (MNK1) [nM]	inhibition at 1 µM (MNK1) [%]	IC50 (MNK2) [nM]	inhibition at 1 µM (MNK2) [%]	SMILES
< 50	> 75	< 50	> 75	N#Cc1ccc(-c2cnc3sc(-c4ccc(C(=O)N5CCOCC5)cc4)nn23)cc1 [Compound 1, 4-(2-(4-(morpholine-4-carbonyl)phenyl)imidazo[2,1-b][1,3,4]thiadiazol-5-yl)benzonitrile]
–	> 75	–	> 75	COC(=O)c1ccc(-c2cnc3sc(-c4ccc(C(=O)N5CCOCC5)cc4)nn23)cc1 [Compound 4]
200 to 800	> 75	200 to 800	> 75	O=C(c1ccc(-c2nn3c(-c4ccc(CO)cc4)cnc3s2)cc1)N1CCOCC1 [Compound 8]
< 50	> 75	< 50	> 75	COc1ccc(-c2cnc3sc(-c4ccc(C(=O)N5CCC(N(C)C)CC5)cc4)nn23)cc1 [Compound 15, (4-(dimethylamino)piperidin-1-yl)(4-(5-(4-methoxyphenyl)imidazo[2,1-b][1,3,4]thiadiazol-2-yl)phenyl)methanone]
< 50	> 75	< 50	> 75	CN1CCN(C(=O)c2ccc(-c3nn4c(-c5ccc(C#N)cc5)cnc4s3)cc2)CC1 [Compound 17, 4-(2-(4-(4-methylpiperazine-1-carbonyl)phenyl)imidazo[2,1-b][1,3,4]thiadiazol-5-yl)benzonitrile]
50 to 200	> 75	< 50	> 75	CN1CCN(C(=O)c2ccc(-c3nn4c(-c5ccc(F)cc5)cnc4s3)cc2)CC1 [Compound 18, (4-(5-(4-fluorophenyl)imidazo[2,1-b][1,3,4]thiadiazol-2-yl)phenyl)(4-methylpiperazin-1-yl)methanone]
200 to 800	> 75	50 to 200	> 75	COC(=O)c1ccc(-c2cnc3sc(-c4ccc(C(=O)N5CCN(C)CC5)cc4)nn23)cc1 [Compound 19, methyl 4-(2-(4-(4-methylpiperazine-1-carbonyl)phenyl)imidazo[2,1-b][1,3,4]thiadiazol-5-yl)benzoate]
200 to 800	> 75	200 to 800	> 75	CN1CCN(C(=O)c2ccc(-c3nn4c(-c5ccc(C(F)(F)F)c(F)c5)cnc4s3)cc2)CC1 [Compound 23, (4-(5-(3-fluoro-4-(trifluoromethyl)phenyl)imidazo[2,1-b][1,3,4]thiadiazol-2-yl)phenyl)(4-methylpiperazin-1-yl)methanone]
